# Measured values reported in BindingDB's records for doi:10.1111/j.1747-0285.2007.00608.x (National Institute of Pharmaceutical Education and Research, 2008).
# pIC50: −log10 of the molar value.
# Target: T1, UDP-3-O-acyl-N-acetylglucosamine deacetylase (Pseudomonas aeruginosa (strain ATCC 15692 / DSM 22644 / CIP 104116 / JCM 14847 / LMG 12228 / 1C / PRS 101 / PAO1), UniProt P47205)
# T1 sequence (P47205 whole entry): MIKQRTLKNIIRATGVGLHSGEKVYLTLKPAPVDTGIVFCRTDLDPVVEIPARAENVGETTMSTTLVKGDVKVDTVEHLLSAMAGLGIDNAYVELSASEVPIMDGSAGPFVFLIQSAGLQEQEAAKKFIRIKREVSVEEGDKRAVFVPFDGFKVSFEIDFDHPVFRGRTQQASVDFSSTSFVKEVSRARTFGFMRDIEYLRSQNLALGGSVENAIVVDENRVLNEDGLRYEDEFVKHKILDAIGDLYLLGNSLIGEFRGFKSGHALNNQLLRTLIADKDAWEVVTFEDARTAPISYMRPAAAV
# Experiment: Inhibition Assay
# Excerpt: The LpxC inhibitors were used as the reference for development of flexible alignment-based pharamcophore, pharamcophore mapping study.
row,SMILES,pIC50
1,CN(C)c1ccc(C2=N[C@@H](C(=O)NO)CO2)cc1 [CS273],5.31
2,"O=C(NO)[C@H]1COC(c2ccc(OCc3cccc(F)c3)c(C(F)(F)F)c2)=N1 [LpxC Inhibitor, L6]",6.60
3,"CCCc1cc(C2=N[C@H](C(=O)NO)CS2)cc(OC(F)(F)F)c1OC [LpxC Inhibitor, L14]",4.75
4,"O=C(NO)[C@@H]1COC(c2ccc(O)cc2)=N1 [LpxC Inhibitor, L17]",< 4.52
5,"O=C(NO)[C@H]1COC(c2ccc(COc3cccc([N+](=O)[O-])c3)cc2)=N1 [LpxC Inhibitor, L2]",6.25
6,"O=C(N[C@@H](CO)C(=O)NO)c1n[nH]c2ccccc12 [LpxC Inhibitor, L5]",4.89
7,"O=C(NO)[C@H]1COC(c2n[nH]c3ccccc23)=N1 [LpxC Inhibitor, L9]",5.26
8,"O=C(NO)[C@@H]1COC(c2ccc(OCc3cccc([N+](=O)[O-])c3)cc2)=N1 [LpxC Inhibitor, L16]",6.00
9,"CCCCn1nc2ccccc2c1C1=N[C@@H](C(=O)NO)CO1 [LpxC Inhibitor, L12]",4.92
10,"CCCCn1nc(C2=N[C@@H](C(=O)NO)CO2)c2ccccc21 [LpxC Inhibitor, L11]",5.00
11,"Cc1ccc(C2=N[C@H](C(=O)NO)CS2)cc1 [LpxC Inhibitor, L18]",4.41
12,"CCCc1cc(C(=O)N[C@@H](CO)C(=O)NO)cc(OC(C)(C)C)c1OC [LpxC Inhibitor, L13]",< 4.30

# More lines, now with the values ahead:
row,pIC50,SMILES
1,6.00,"CCOc1cc(C2=N[C@@H](C(=O)NO)CO2)ccc1F [LpxC Inhibitor, L10]"
2,4.60,"O=C(NO)[C@H]1COC(c2cc(F)cc(C(F)(F)F)c2)=N1 [LpxC Inhibitor, L7]"
3,5.92,"Cc1cc(C2=N[C@@H](C(=O)NO)CO2)ccc1F [LpxC Inhibitor, L3]"
4,5.66,"C=CCOc1ccc(C2=N[C@@H](C(=O)NO)CO2)cc1C(F)(F)F [LpxC Inhibitor, L4]"
5,6.80,"COc1ccc(C2=N[C@H](C(=O)NO)CO2)cc1OC(F)(F)F [LpxC Inhibitor, L15]"
6,6.30,"CCCc1cc(C2=N[C@@H](C(=O)NO)CO2)cc(OC(F)(F)F)c1OC [LpxC Inhibitor, L1]"
